Laboratory results: patent EP0019589A1, “Tripeptide derivatives and their use in a process for determining enzymes” (Pentapharm A.G., priority 1979, dated 1980)
Non-standard residues stand in square brackets, D forms with d. Residues, ends and D or L forms follow the SMILES beside them. *: point of attachment. Cha = N[C@@H](CC1CCCCC1)C(=O)O; dCha = N[C@H](CC1CCCCC1)C(=O)O; dChg = N[C@@H](C(=O)O)C1CCCCC1; dPhg = N[C@@H](C(=O)O)c1ccccc1; pNA = O=[N+]([O-])c1ccc(N*)cc1; Chg = N[C@H](C(=O)O)C1CCCCC1; Phg = N[C@H](C(=O)O)c1ccccc1; dNva = CCC[C@@H](N)C(=O)O; dPip = O=C(O)[C@H]1CCCCN1; dAbu = CC[C@@H](N)C(=O)O; Nva = CCC[C@H](N)C(=O)O

Assays:
Type in all cases: biochemical
[1] = target: T1, Submandibularis-Kallikrein (Homo sapiens, UniProt P06870); test: Cleavage of chromogenic substrate by submandibular (glandular) kallikrein in human sputum; conditions: 1 ml human sputum, per min; Substratkonzentration 2 x 10^-4 molar
T1 construct: Man mischt 0,5 ml Sputum mit 2 ml TRIS-Imidazol-Puffer; from tissue; host or cells: human sputum
Procedure, shortened: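 Sputum mixed with TRIS-imidazole buffer (ionic strength 1.0), preincubated 5 min at 37°C and centrifuged; supernatant incubated with aqueous substrate solution (2 x 10^-3 M, stock). p-Nitroaniline release followed continuously at 405 nm for 5-10 min; activity expressed as mU per ml sputum from ΔOD/min.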

[2] = target: T2, Humanthrombin (Homo sapiens, UniProt P00734); test: Cleavage of chromogenic substrate by human NIH thrombin; conditions: 1 NIH-Einheit human thrombin, per min; Substratkonzentration 2 x 10^-4 molar
T2 construct: Humanplasmin und hu-manem NIH-Thrombin
Procedure, shortened: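 Thrombin hydrolysis of chromogenic p-nitroanilide substrate read spectrophotometrically at 405 nm; fluorogenic naphthylamine, methylcoumarylamine or di(methoxycarbonyl)phenylamine substrates read continuously by fluorescence emission at 400-470 nm. Activity taken as product formed per unit time; 1 µmol product/min defined as 1 enzyme unit for a given substrate.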

[3] = target: T3, Urinkallikrein (Homo sapiens, UniProt P06870); test: Cleavage of chromogenic substrate by urinary kallikrein in human urine; conditions: 1 ml human urine (pooled morning urine of healthy persons), per min; Substratkonzentration 2 x 10^-4 molar
T3 construct: 1 ml Urin und 1 ml TRIS-Imidazol-Puffer mit pH 7,9; from tissue; host or cells: human urine

[4] = target: T4, Humanplasmin (Homo sapiens, UniProt P00747); test: Cleavage of chromogenic substrate by human plasmin; conditions: 1 CU-Einheit human plasmin, per min; Substratkonzentration 2 x 10^-4 molar
T4 construct: da bei der Aktivierung aus 1 Molekül Plasminogen 1 Molekül Plasmin entsteht
T4 sequence (P00747 581-810 limits assumed): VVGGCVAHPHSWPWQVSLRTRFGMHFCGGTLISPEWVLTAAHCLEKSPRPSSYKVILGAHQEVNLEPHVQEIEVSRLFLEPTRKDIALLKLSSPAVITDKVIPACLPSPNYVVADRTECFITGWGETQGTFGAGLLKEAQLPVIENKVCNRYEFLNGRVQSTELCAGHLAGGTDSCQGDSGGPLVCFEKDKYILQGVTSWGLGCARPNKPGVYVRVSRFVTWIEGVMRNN
T4 sequence (P00747 97-580 partner limits assumed): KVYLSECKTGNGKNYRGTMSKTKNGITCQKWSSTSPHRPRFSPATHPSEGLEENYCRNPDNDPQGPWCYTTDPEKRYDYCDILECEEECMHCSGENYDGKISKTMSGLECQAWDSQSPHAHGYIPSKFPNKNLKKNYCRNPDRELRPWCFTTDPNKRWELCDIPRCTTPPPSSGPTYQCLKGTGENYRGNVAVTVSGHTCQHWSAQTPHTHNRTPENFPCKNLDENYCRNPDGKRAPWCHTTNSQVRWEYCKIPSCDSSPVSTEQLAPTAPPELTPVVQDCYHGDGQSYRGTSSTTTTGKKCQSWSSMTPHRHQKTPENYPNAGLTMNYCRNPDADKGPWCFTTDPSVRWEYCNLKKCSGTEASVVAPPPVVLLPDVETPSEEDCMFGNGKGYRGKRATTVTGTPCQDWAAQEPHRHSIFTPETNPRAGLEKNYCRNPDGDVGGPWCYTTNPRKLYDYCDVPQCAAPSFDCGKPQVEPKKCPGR

T3 sequence (P06870 25-262): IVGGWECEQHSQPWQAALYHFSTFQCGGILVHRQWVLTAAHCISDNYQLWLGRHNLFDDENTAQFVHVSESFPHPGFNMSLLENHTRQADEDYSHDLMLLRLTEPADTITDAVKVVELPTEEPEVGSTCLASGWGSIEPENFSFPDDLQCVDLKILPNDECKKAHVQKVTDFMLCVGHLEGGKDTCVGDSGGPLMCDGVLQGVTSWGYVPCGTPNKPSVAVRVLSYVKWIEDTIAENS
T1 sequence (P06870 25-262): as above

Row | Compound | Menge des durch 1 ml Humansputum pro Min. freigesetzten Spaltproduktes R-NH2 in Nanomol (Submandibularis-Kallikrein) [1] | Menge des durch 1 NIH-Einheit Thrombin pro Min. freigesetzten Spaltproduktes R-NH2 in Nanomol (Humanthrombin) [2] | Menge des durch 1 ml Humanurin pro Min. freigesetzten Spaltproduktes R-NH2 in Nanomol (Urinkallikrein) [3] | Menge des durch 1 CU-Einheit Humanplasmin pro Min. freigesetzten Spaltproduktes R-NH2 in Nanomol (Humanplasmin) [4]
1 | CC(C)C[C@@H](N)C(=O)N[C@H](C(=O)N[C@@H](CCCNC(=N)N)C(=O)Nc1ccc([N+](=O)[O-])cc1)c1ccccc1 [Beispiel 53, 2HBr.H-D-Leu-Ph'Gly-Arg-pNA] (H-[dL]-[Phg]-Arg-pNA) | 25,8 Nanomol | 27,4 Nanomol | 0,67 Nanomol | 422 Nanomol
2 | CC(C)[C@@H](N)C(=O)N[C@@H](CC1CCC(O)CC1)C(=O)N[C@@H](CCCCN)C(=O)Nc1ccc([N+](=O)[O-])cc1 (stereo partly drawn) [Beispiel 34, 2AcOH.H-D-Val-CHT-Lys-pNA] | 16,5 Nanomol | 0,4 Nanomol | 1,40 Nanomol | 532 Nanomol
3 | CC(C)C[C@H](NC(=O)[C@H](N)C1CCCCC1)C(=O)N[C@@H](CCCNC(=N)N)C(=O)Nc1ccc([N+](=O)[O-])cc1 [Beispiel 11, 2HBr.H-D-CHG-Leu-Arg-pNA] (H-[dChg]-Leu-Arg-pNA) | 11,6 Nanomol | 33,9 Nanomol | 0,60 Nanomol | 381 Nanomol
4 | N=C(N)NCCC[C@H](NC(=O)[C@@H](NC(=O)[C@H]1CCCCN1)C1CCCCC1)C(=O)Nc1ccc([N+](=O)[O-])cc1 [Beispiel 60, 2HBr.H-D-Pip-CHG-Arg-pNA] (H-[dPip]-[Chg]-Arg-pNA) | 1,4 Nanomol | 1,3 Nanomol | 0 Nanomol | 10 Nanomol
5 | CC[C@@H](N)C(=O)N[C@@H](CC1CCCCC1)C(=O)N[C@@H](CCCNC(=N)N)C(=O)Nc1ccc([N+](=O)[O-])cc1 [Beispiel 41, 2HBr.H-D-But-CHA-Arg-pNA] (H-[dAbu]-[Cha]-Arg-pNA) | 31,2 Nanomol | 2,8 Nanomol | 2,99 Nanomol | 623 Nanomol
6 | CC(C)C[C@@H](N)C(=O)N[C@@H](CC1CCCCC1)C(=O)N[C@@H](CCCNC(=N)N)C(=O)Nc1ccc([N+](=O)[O-])cc1 [Beispiel 36, 2HBr.H-D-Leu-CHA-Arg-pNA] (H-[dL]-[Cha]-Arg-pNA) | 35,9 Nanomol | 6,8 Nanomol | 3,11 Nanomol | 1069 Nanomol
7 | N=C(N)NCCC[C@H](NC(=O)[C@H](CC1CCCCC1)NC(=O)[C@H]1CCCN1)C(=O)Nc1ccc([N+](=O)[O-])cc1 [Beispiel 22, 2HBr.H-D-Pro-CHA-Arg-pNA] (H-[dP]-[Cha]-Arg-pNA) | 11,7 Nanomol | 0,75 Nanomol | 0,63 Nanomol | 250 Nanomol
8 | C[C@H](NC(=O)[C@H](N)CC1CCCCC1)C(=O)N[C@@H](CCCNC(=N)N)C(=O)Nc1ccc([N+](=O)[O-])cc1 [Beispiel 49, 2HBr.H-D-CHA-Ala-Arg-pNA] (H-[dCha]-Ala-Arg-pNA) | 10,6 Nanomol | 163,5 Nanomol | 0,66 Nanomol | 389 Nanomol
9 | CC(C)[C@@H](N)C(=O)N[C@@H](CC1CCCCC1)C(=O)N[C@@H](CCCNC(=N)N)C(=O)Nc1ccc([N+](=O)[O-])cc1 [Beispiel 12, 2HBr.H-D-Val-CHA-Arg-pNA] (H-[dV]-[Cha]-Arg-pNA) | 30,5 Nanomol | 4,0 Nanomol | 2,75 Nanomol | 421 Nanomol
10 | NCCCC[C@H](NC(=O)[C@H](CC1CCCCC1)NC(=O)[C@H](N)C1CCCCC1)C(=O)Nc1ccc([N+](=O)[O-])cc1 [Beispiel 20, 2HBr.H-D-CHG-CHA-Lys-pNA] (H-[dChg]-[Cha]-Lys-pNA) | 4,4 Nanomol | 0,99 Nanomol | 0,28 Nanomol | 500 Nanomol
11 | NCCCC[C@H](NC(=O)[C@@H]1CCCN1C(=O)[C@H](N)CC1CCC(O)CC1)C(=O)Nc1ccc([N+](=O)[O-])cc1 (stereo partly drawn) [Beispiel 32, 2AcOH.H-D-CHT-Pro-Lys-pNA] | 3,8 Nanomol | 0,8 Nanomol | 0,20 Nanomol | 613 Nanomol
12 | N=C(N)NCCC[C@H](NC(=O)[C@H](Cc1ccc(O)cc1)NC(=O)[C@H](N)Cc1ccccc1)C(=O)Nc1ccc([N+](=O)[O-])cc1 [Beispiel 46, 2HBr.H-D-Phe-Tyr-Arg-pNA] (H-[dF]-Tyr-Arg-pNA) | 6,1 Nanomol | 2,6 Nanomol | 0,26 Nanomol | 843 Nanomol
13 | CCC[C@H](NC(=O)[C@H](N)CC1CCCCC1)C(=O)N[C@@H](CCCNC(=N)N)C(=O)Nc1ccc([N+](=O)[O-])cc1 [Beispiel 69, 2HBr.H-D-CHA-Nval-Arg-pNA] (H-[dCha]-[Nva]-Arg-pNA) | 14,2 Nanomol | 97,1 Nanomol | 0,35 Nanomol | 574 Nanomol
14 | N=C(N)NCCC[C@H](NC(=O)[C@H](Cc1ccc(O)cc1)NC(=O)[C@H](N)c1ccccc1)C(=O)Nc1ccc([N+](=O)[O-])cc1 [Beispiel 47, 2HBr.H-D-Ph'Gly-Tyr-Arg-pNA] (H-[dPhg]-Tyr-Arg-pNA) | 7,0 Nanomol | 1,0 Nanomol | 0,19 Nanomol | 818 Nanomol
15 | CCC[C@@H](N)C(=O)N[C@@H](CC1CCCCC1)C(=O)N[C@@H](CCCNC(=N)N)C(=O)Nc1ccc([N+](=O)[O-])cc1 [Beispiel 38, 2HBr.H-D-Nval-CHA-Arg-pNA] (H-[dNva]-[Cha]-Arg-pNA) | 41,3 Nanomol | 5,1 Nanomol | 3,12 Nanomol | 969 Nanomol
16 | N=C(N)NCCC[C@H](NC(=O)[C@@H](NC(=O)[C@H](N)C1CCCCC1)c1ccccc1)C(=O)Nc1ccc([N+](=O)[O-])cc1 [Beispiel 58, 2HBr.H-D-CHG-Ph'Gly-Arg-pNA] (H-[dChg]-[Phg]-Arg-pNA) | 22,1 Nanomol | 63,7 Nanomol | 0,38 Nanomol | 446 Nanomol
17 | CCC[C@H](NC(=O)[C@H](N)C1CCCCC1)C(=O)N[C@@H](CCCNC(=N)N)C(=O)Nc1ccc([N+](=O)[O-])cc1 [Beispiel 70, 2HBr.H-D-CHG-Nval-Arg-pNA] (H-[dChg]-[Nva]-Arg-pNA) | 24,2 Nanomol | 67,4 Nanomol | 0,38 Nanomol | 488 Nanomol
